Measurements published in US10208033B2, “β-carboline, dihydro-β-carboline and tetrahydro-β-carboline alkaloid derivatives and preparation methods same and use in aspects of preventing and treating plant viruses, fungicides and insecticides” (NANKAI UNIVERSITY, priority 2013, dated 2019).
Where two headings read alike, the source gives them in different places.

How the values were obtained:
[1] = system: cucumber fusarium wilt; test: Fungicidal (bactericidal) activity in vitro, PDA colony diameter; assay type: cell-based; details: 50 mg/kg; for inhibition of growth at 50 mg/kg: Fusarium, 96 h
[2] = system: Cercospora arachidicola; test: as above; assay type: cell-based; details: 50 mg/kg; for inhibition of growth at 50 mg/kg: Mycosphaerella arachidis, 96 h
[3] = system: Macrophoma kawatsukai; test: as above; assay type: cell-based; details: 50 mg/kg
[4] = system: Alternaria solani; test: as above; assay type: cell-based; details: 50 mg/kg; for inhibition of growth at 50 mg/kg: Alternaria solani, 96 h
[5] = system: Fusarium graminearumt; test: microbe, parasite or virus in culture; assay type: cell-based; details: for inhibition of growth at 50 mg/kg: Fusarium, 96 h, read-out: Bactericidal activity (%) Fusarium graminearumt; for Bactericidal activity (%) Fusarium graminearumt: 50 mg/kg
[6] = system: potato late blight; test: microbe, parasite or virus in culture; assay type: cell-based; details: for inhibition of growth at 50 mg/kg: Phytophthora infestans, 96 h, read-out: Bactericidal activity (%) potato late blight
[7] = system: Sclerotinia scleotiorum; test: Fungicidal (bactericidal) activity in vitro, PDA colony diameter; assay type: cell-based; details: 50 mg/kg; for inhibition of growth at 50 mg/kg: Sclerotinia, 96 h
[8] = system: Botrytis cinerea; test: as above; assay type: cell-based; details: for inhibition of growth at 50 mg/kg: Botrytis cinerea, 96 h
[9] = system: Rhizoctonia solani; test: as above; assay type: cell-based; details: 50 mg/kg; for inhibition of growth at 50 mg/kg: Rhizoctonia solani, 96 h
[10] = system: Phytophthora capsici; test: as above; assay type: cell-based; details: 50 mg/kg; for inhibition of growth at 50 mg/kg: Phytophthora capsici, 96 h
[11] = system: Fusarium fujikuroi; test: as above; assay type: cell-based; details: 50 mg/kg; for inhibition of growth at 50 mg/kg: Fusarium fujikuroi, 96 h
[12] = system: Rhizoctonia cereali; test: as above; assay type: cell-based; details: 50 mg/kg; for inhibition of growth at 50 mg/kg: Rhizoctonia, 96 h
[13] = system: Bipolaria maydis; test: organism not typed; assay type: cell-based; details: for inhibition at 50 mg/kg: read-out: Bactericidal activity (%) Bipolaria maydis; for Bactericidal activity (%) Bipolaria maydis: 50 mg/kg
[14] = system: Colletotrichum orbiculare; test: Fungicidal (bactericidal) activity in vitro, PDA colony diameter; assay type: cell-based; details: 50 mg/kg; for inhibition of growth at 50 mg/kg: Colletotrichum orbiculare, 96 h
[15] = system: tobacco mosaic virus (TMV); test: Anti-TMV in vitro effect (half-leaf soaking); assay type: cell-based, tobacco mosaic virus (host Nicotiana tabacum L.cv.Xanthi NN)
[16] = system: tobacco mosaic virus (TMV); test: Anti-TMV in vivo inactivation; set-up: species or system tobacco mosaic virus (host Nicotiana tabacum L.cv.Xanthi NN)
[17] = system: tobacco mosaic virus (TMV); test: Anti-TMV in vivo therapeutic effect; set-up: species or system tobacco mosaic virus (host Nicotiana tabacum L.cv.Xanthi NN)
[18] = system: tobacco mosaic virus (TMV); test: Anti-TMV in vivo protective effect; set-up: species or system tobacco mosaic virus (host Nicotiana tabacum L.cv.Xanthi NN)
[19] = system: armyworms; assay type: in vivo; details: concentration 600 mg/kg
[20] = system: cotton bollworms; test: whole plant or invertebrate
Protocol: Experimental method of cotton bollworms: feed and drug mixing method: measure 3 mL of prepared solution and add it to about 27 g of newly prepared feed, thereby obtaining needed concentration through dilution by 10 times.

[21] = system: mosquito larvae; test: whole plant or invertebrate; details: 24 h
Protocol: Experimental method of mosquito larvae: culex pipiens pallens, a normal colony raised indoors. Weigh about 5 mg of the compound for test, put it in a penicillin vial, add 5 mL of acetone (or an appropriate solvent), and shake and dissolve it to obtain a 1000 ppm mother solution. Pipette 0.5 mL of the mother solution, add it to a 100 mL beaker filled with 89.9 mL of water, select 10 mosquito larvae at the beginning of the fourth instar, and pour them to a beaker together with 10 mL of feeding solution. The concentration of the drug solution is 5 ppm. […] Use an aqueous solution containing 0.5 mL of test solvent as a blank.

[22] = system: corn borers

**Q.** `COC(=O)Nc1nc2ccccc2[nH]1` [Carbendazim] was tested. Which inhibition of growth at 50 mg/kg [1] did it give?
**A.** < 50%

**Q.** What about the inhibition of growth at 50 mg/kg [2] of the same molecule?
**A.** < 50%

**Q.** And the inhibition at 50 mg/kg [3]?
**A.** < 50%

**Q.** And the inhibition of growth at 50 mg/kg [4]?
**A.** < 50%

**Q.** And the inhibition of growth at 50 mg/kg [5]?
**A.** 100%

**Q.** And the inhibition of growth at 50 mg/kg [6]?
**A.** 100%

**Q.** What about the inhibition of growth at 50 mg/kg [7] of the same molecule?
**A.** 100%

**Q.** And the inhibition of growth at 50 mg/kg ([8]; 50 mg/kg)?
**A.** < 50%

**Q.** And the inhibition of growth at 50 mg/kg [9]?
**A.** 100%

**Q.** What about the inhibition of growth at 50 mg/kg [10] of the same molecule?
**A.** < 50%

**Q.** What about the inhibition of growth at 50 mg/kg [11] of the same molecule?
**A.** < 50%

**Q.** And the inhibition of growth at 50 mg/kg [12]?
**A.** 100%

**Q.** What about the inhibition at 50 mg/kg [13] of the same molecule?
**A.** 100%

**Q.** And the inhibition of growth at 50 mg/kg [14]?
**A.** 100%

**Q.** With `N#Cc1c(Cl)c(Cl)c(Cl)c(C#N)c1Cl` [Chlorothalonil] as the molecule, how does the inhibition of growth at 50 mg/kg [1] read?
**A.** 100%

**Q.** And the inhibition of growth at 50 mg/kg [2]?
**A.** 73.3%

**Q.** What about the inhibition at 50 mg/kg [3] of the same molecule?
**A.** 100%

**Q.** And the inhibition of growth at 50 mg/kg [4]?
**A.** 73.3%

**Q.** What about the inhibition of growth at 50 mg/kg [5] of the same molecule?
**A.** < 50%

**Q.** What about the inhibition of growth at 50 mg/kg [6] of the same molecule?
**A.** 86.4%

**Q.** And the inhibition of growth at 50 mg/kg [7]?
**A.** < 50%

**Q.** What about the inhibition of growth at 50 mg/kg ([8]; 50 mg/kg) of the same molecule?
**A.** 100%

**Q.** What about the inhibition of growth at 50 mg/kg [9] of the same molecule?
**A.** 100%

**Q.** And the inhibition of growth at 50 mg/kg [10]?
**A.** 100%

**Q.** What about the inhibition of growth at 50 mg/kg [11] of the same molecule?
**A.** 100%

**Q.** What about the inhibition of growth at 50 mg/kg [12] of the same molecule?
**A.** 100%

**Q.** And the inhibition at 50 mg/kg [13]?
**A.** 91.3%

**Q.** What about the inhibition of growth at 50 mg/kg [14] of the same molecule?
**A.** 91.3%

**Q.** What does the source list for `Cc1nccc2c1[nH]c1cc(OC(=O)N(C)C)ccc12` [Ia-6, dimethylcarbamate (1-methylpyridino [3,4-b]indol-7)-ester]?
**A.** Relative inhibition rate (%) In vitro activity ([15]; treatment dose 100 μg/mL): 0%; Relative inhibition rate (%) In vitro activity ([15]; treatment dose 500 μg/mL): 12.6%; Relative inhibition rate (%) In vivo inactivation ([16]; treatment dose 100 μg/mL): 0%; Relative inhibition rate (%) In vivo inactivation ([16]; treatment dose 500 μg/mL): 12%; Relative inhibition rate (%) In vivo therapy ([17]; treatment dose 100 μg/mL): 0%; Relative inhibition rate (%) In vivo therapy ([17]; treatment dose 500 μg/mL): 15.6%; Relative inhibition rate (%) In vivo protection ([18]; treatment dose 100 μg/mL): 0%; Relative inhibition rate (%) In vivo protection ([18]; treatment dose 500 μg/mL): 18.7%; Bactericidal activity (%) Cucumber fusarium wilt [1]: 23.1%; Bactericidal activity (%) Cercospora arachidicola [2]: 53.9%; Bactericidal activity (%) Macrophoma kawatsukai [3]: 26.2%; Bactericidal activity (%) Alternaria solani [4]: 15.8%; Bactericidal activity (%) Fusarium graminearumt [5]: 38.1%; Bactericidal activity (%) potato late blight [6]: 9.1%; Bactericidal activity (%) Sclerotinia scleotiorum [7]: 7.8%; Bactericidal activity (%) Botrytis cinerea ([8]; 50 mg/kg): 12.1%; Bactericidal activity (%) Rhizoctonia solani [9]: 46.1%; Bactericidal activity (%) Phytophthora capsici [10]: 9.4%; Bactericidal activity (%) Fusarium fujikuroi [11]: 21.4%; Bactericidal activity (%) Rhizoctonia cereali [12]: 36.8%; Bactericidal activity (%) Bipolaria maydis [13]: 27.3%; Bactericidal activity (%) Colletotrichum orbiculare [14]: 35.7%; Armyworm Mortality (%) [19]: 45%; Cotton bollworm Mortality (%) ([20]; concentration 600 mg/kg): 20%; Mosquito larvae Mortality (%) ([21]; concentration 5 mg/kg): 20%; Mosquito larvae Mortality (%) ([21]; concentration 10 mg/kg): 100%; Corn borer Mortality (%) ([22]; concentration 600 mg/kg): 35%

**Q.** `O=C(O)[C@@H]1Cc2c([nH]c3ccccc23)[C@H](c2cccnc2)N1` [Ib-6, (1S, 3S)-1-(pyridine-3)-2,3,4,9-tetrahydropyridino [3,4-b] indol-3-formic acid] was tested. Which “Relative inhibition rate (%) In vitro activity” value ([15]; treatment dose 100 μg/mL) did it give?
**A.** 0%

**Q.** And the “Relative inhibition rate (%) In vitro activity” value ([15]; treatment dose 500 μg/mL)?
**A.** 25%

**Q.** And the “Relative inhibition rate (%) In vivo inactivation” value ([16]; treatment dose 100 μg/mL)?
**A.** 0%

**Q.** And the “Relative inhibition rate (%) In vivo inactivation” value ([16]; treatment dose 500 μg/mL)?
**A.** 17.5%

**Q.** And the “Relative inhibition rate (%) In vivo therapy” value ([17]; treatment dose 100 μg/mL)?
**A.** 0%

**Q.** What about the “Relative inhibition rate (%) In vivo therapy” value ([17]; treatment dose 500 μg/mL) of the same molecule?
**A.** 21.4%

**Q.** And the “Relative inhibition rate (%) In vivo protection” value ([18]; treatment dose 100 μg/mL)?
**A.** 0%

**Q.** What about the “Relative inhibition rate (%) In vivo protection” value ([18]; treatment dose 500 μg/mL) of the same molecule?
**A.** 24.8%

**Q.** What about the “Bactericidal activity (%) Cucumber fusarium wilt” value [1] of the same molecule?
**A.** 26.9%

**Q.** And the “Bactericidal activity (%) Cercospora arachidicola” value [2]?
**A.** 84.6%

**Q.** What about the “Bactericidal activity (%) Macrophoma kawatsukai” value [3] of the same molecule?
**A.** 61.9%

**Q.** What about the “Bactericidal activity (%) Alternaria solani” value [4] of the same molecule?
**A.** 26.3%

**Q.** What about the “Bactericidal activity (%) Fusarium graminearumt” value [5] of the same molecule?
**A.** 31.0%

**Q.** What about the “Bactericidal activity (%) potato late blight” value [6] of the same molecule?
**A.** 27.3%

**Q.** What about the “Bactericidal activity (%) Sclerotinia scleotiorum” value [7] of the same molecule?
**A.** 29.4%

**Q.** What about the “Bactericidal activity (%) Botrytis cinerea” value [8] of the same molecule?
**A.** 27.3%

**Q.** What about the “Bactericidal activity (%) Rhizoctonia solani” value [9] of the same molecule?
**A.** 32.9%

**Q.** What about the “Bactericidal activity (%) Phytophthora capsici” value [10] of the same molecule?
**A.** 9.4%

**Q.** What about the “Bactericidal activity (%) Fusarium fujikuroi” value [11] of the same molecule?
**A.** 14.3%

**Q.** And the “Bactericidal activity (%) Rhizoctonia cereali” value [12]?
**A.** 63.2%

**Q.** What about the “Bactericidal activity (%) Bipolaria maydis” value [13] of the same molecule?
**A.** 36.4%

**Q.** And the “Bactericidal activity (%) Colletotrichum orbiculare” value [14]?
**A.** 32.1%

**Q.** And the “Armyworm Mortality (%)” value [19]?
**A.** 45%

**Q.** What about the “Cotton bollworm Mortality (%)” value ([20]; in vivo) of the same molecule?
**A.** 20%

**Q.** What about the “Corn borer Mortality (%)” value ([22]; in vivo) of the same molecule?
**A.** 40%
